# Laboratory results as given in patent US20030166653A1, “Novel form of (r)-n-[5-methyl-8-(4-methylpiperazin-1-yl)-1,2,3,4-tetrahydro-2-naphthyl]-4-morpholinobenzamide” (priority 2003, published 2003).
# Legend:
# Format in all cases: physicochemical
# [1] = Stability of bulk drug substance (HPLC purity) in daylight and at 90° C.; conditions: for HPLC Purity (100% - related substances): bulk
# Description: The stability of [5-Methyl-8-(4-methylpiperazin-1-yl)-1,2,3,4-tetrahydro-2-naphtyl]-4-morpholinobenzamide(=“Base” in tables below) and (R)-N-[5-methyl-8-(4-methylpiperazin-1-yl)-1,2,3,4-tetrahydro-2-naphtyl]-4-morpholinobenzamide monohydrobromide Form A (=“Form A” in tables below), as bulk drug substance and in solutions at different pH levels after exposure to daylight and at elevated temperatures, has been studied. The bulk substances are very stable, both in daylight and at 90° C. There are no significant differences between the HPLC purity of [5-Methyl-8-(4-methylpiperazin-1-yl)-1,2,3,4-tetrahydro-2-naphtyl]-4-morpholinobenzamide (=Base) and (R)-N-[5-methyl-8-(4-methylpiperazin-1-yl)-1,2,3,4-tetrahydro-2-naphtyl]-4-morpholinobenzamide monohydrobromide Form A (=Form A) at the tested conditions.
# [2] = Stability in water solutions (pH not adjusted), HPLC assay
# Excerpt: (§1) The stability of [5-Methyl-8-(4-methylpiperazin-1-yl)-1,2,3,4-tetrahydro-2-naphtyl]-4-morpholinobenzamide(=“Base” in tables below) and (R)-N-[5-methyl-8-(4-methylpiperazin-1-yl)-1,2,3,4-tetrahydro-2-naphtyl]-4-morpholinobenzamide monohydrobromide Form A (=“Form A” in tables below), as bulk drug substance and in solutions at different pH levels after exposure to daylight and at elevated temperatures, has been studied. Three solutions were made from each batch of drug substance. One solution in pure water, one in 0.1 mM HCl (pH 4.1) and one in 0.1 M HCl (pH 1.1). The content of [5-Methyl-8-(4-methylpiperazin-1-yl)-1,2,3,4-tetrahydro-2-naphtyl]-4-morpholinobenzamide (=Base) was determined by HPLC, all results are calculated as the base.
# [3] = Stability of solution in 0.1 mM HCl, pH 4.1, HPLC assay
# Excerpt: as §1
# [4] = Stability of solution in 0.1 M HCl, pH 1.1, HPLC assay
# Excerpt: as §1
# [5] = Solubility in water by HPLC-analysis; conditions: as the free base by HPLC-analysis
# [6] = daylight RT, 14 days, % of start
# [7] = daylight RT, 23 days, % of start
smiles,measurement,setting,value
"Cc1ccc(N2CCN(C)CC2)c2c1CCC(NC(=O)c1ccc(N3CCOCC3)cc1)C2 (stereo not shown) [Base, [5-Methyl-8-(4-methylpiperazin-1-yl)-1,2,3,4-tetrahydro-2-naphtyl]-4-morpholinobenzamide]",HPLC Purity (100% - related substances),"[1]; 90° C., 2 days",99.9%
same,HPLC Purity (100% - related substances),"[1]; 90° C., 8 days",99.9%
same,HPLC Purity (100% - related substances),"[1]; 90° C., 14 days",99.9%
same,HPLC Purity (100% - related substances),"[1]; 90° C., 21 days",99.9%
same,HPLC Purity (100% - related substances),"[1]; 90° C., 30 days",99.9%
same,HPLC Purity (100% - related substances),"[1]; 90° C., Start",100%
same,HPLC Purity (100% - related substances),"[1]; daylight, RT, 8 days",99.9%
same,HPLC Purity (100% - related substances),"[1]; daylight, RT, 14 days",99.9%
same,HPLC Purity (100% - related substances),"[1]; daylight, RT, 21 days",99.9%
same,HPLC Purity (100% - related substances),"[1]; daylight, RT, 30 days",99.9%
same,HPLC Purity (100% - related substances),"[1]; daylight, RT, Start",100%
same,stability of bulk substance in words,[1]; in daylight and at 90° C.,very stable
same,"Stability in water solutions, assay","[2]; 5° C., 8 days, % of start",101%
same,"Stability in water solutions, assay","[2]; 5° C., 14 days, % of start",101%
same,"Stability in water solutions, assay","[2]; 5° C., 23 days, % of start",102%
same,"Stability in water solutions, assay","[2]; 5° C., Start",0.00698 mg base/ml
same,"Stability in water solutions, assay","[2]; 5° C., Start, % of start",(100%)
same,"Stability in water solutions, assay","[2]; 60° C., 2 days, % of start",105%
same,"Stability in water solutions, assay","[2]; 60° C., 8 days, % of start",104%
same,"Stability in water solutions, assay","[2]; 60° C., 14 days, % of start",106%
same,"Stability in water solutions, assay","[2]; 60° C., 23 days, % of start",102%
same,"Stability in water solutions, assay","[2]; 60° C., Start",0.00698 mg base/ml
same,"Stability in water solutions, assay","[2]; 60° C., Start, % of start",(100%)
same,"Stability in water solutions, assay","[2]; Dark RT, 8 days, % of start",94%
same,"Stability in water solutions, assay","[2]; Dark RT, 14 days, % of start",94%
same,"Stability in water solutions, assay","[2]; Dark RT, 23 days, % of start",95%
same,"Stability in water solutions, assay","[2]; Dark RT, Start",0.00698 mg base/ml
same,"Stability in water solutions, assay","[2]; Dark RT, Start, % of start",(100%)
same,"Stability in water solutions, assay","[2]; daylight RT, 8 days, % of start",95%
same,"Stability in water solutions, assay",[2]; [6],94%
same,"Stability in water solutions, assay",[2]; [7],91%
same,"Stability in water solutions, assay","[2]; daylight RT, Start",0.00698 mg base/ml
same,"Stability in water solutions, assay","[2]; daylight RT, Start, % of start",(100%)
same,"stability in pure water solution, comparison in words","[2]; room temperature, pH not adjusted",less stable than Form A
same,"Solution in 0.1 mM HCl, pH 4.1, assay","[3]; 5° C., 8 days, % of start",100%
same,"Solution in 0.1 mM HCl, pH 4.1, assay","[3]; 5° C., 14 days, % of start",99%
same,"Solution in 0.1 mM HCl, pH 4.1, assay","[3]; 5° C., 23 days, % of start",99%
same,"Solution in 0.1 mM HCl, pH 4.1, assay","[3]; 5° C., Start",0.0443 mg base/ml
same,"Solution in 0.1 mM HCl, pH 4.1, assay","[3]; 5° C., Start, % of start",(100%)
same,"Solution in 0.1 mM HCl, pH 4.1, assay","[3]; 60° C., 2 days, % of start",96%
same,"Solution in 0.1 mM HCl, pH 4.1, assay","[3]; 60° C., 8 days, % of start",93%
same,"Solution in 0.1 mM HCl, pH 4.1, assay","[3]; 60° C., 14 days, % of start",67%
same,"Solution in 0.1 mM HCl, pH 4.1, assay","[3]; 60° C., 23 days, % of start",57%
same,"Solution in 0.1 mM HCl, pH 4.1, assay","[3]; 60° C., Start",0.0443 mg base/ml
same,"Solution in 0.1 mM HCl, pH 4.1, assay","[3]; 60° C., Start, % of start",(100%)
same,"Solution in 0.1 mM HCl, pH 4.1, assay","[3]; Dark RT, 8 days, % of start",99%
same,"Solution in 0.1 mM HCl, pH 4.1, assay","[3]; Dark RT, 14 days, % of start",98%
same,"Solution in 0.1 mM HCl, pH 4.1, assay","[3]; Dark RT, 23 days, % of start",97%
same,"Solution in 0.1 mM HCl, pH 4.1, assay","[3]; Dark RT, Start",0.0443 mg base/ml
same,"Solution in 0.1 mM HCl, pH 4.1, assay","[3]; Dark RT, Start, % of start",(100%)
same,"Solution in 0.1 mM HCl, pH 4.1, assay",[3]; [6],98%
same,"Solution in 0.1 mM HCl, pH 4.1, assay",[3]; [7],98%
same,"Solution in 0.1 mM HCl, pH 4.1, assay","[3]; daylight RT, Start",0.0443 mg base/ml
same,"Solution in 0.1 mM HCl, pH 4.1, assay","[3]; daylight RT, Start, % of start",(100%)
same,"stability in solution, comparison in words","[3]; pH 4.1, 60° C. (more pronounced than at pH 1.1)",less stable than Form A
same,stability in solution in words,"[3]; pH 4.1, except at 60° C.",good
same,"Solution in 0.1 M HCl, pH 1.1, assay","[4]; 5° C., 8 days, % of start",99%
same,"Solution in 0.1 M HCl, pH 1.1, assay","[4]; 5° C., 14 days, % of start",100%
same,"Solution in 0.1 M HCl, pH 1.1, assay","[4]; 5° C., 23 days, % of start",97%
same,"Solution in 0.1 M HCl, pH 1.1, assay","[4]; 5° C., Start",0.479 mg base/ml
same,"Solution in 0.1 M HCl, pH 1.1, assay","[4]; 5° C., Start, % of start",(100%)
same,"Solution in 0.1 M HCl, pH 1.1, assay","[4]; 60° C., 2 days, % of start",98%
same,"Solution in 0.1 M HCl, pH 1.1, assay","[4]; 60° C., 8 days, % of start",96%
same,"Solution in 0.1 M HCl, pH 1.1, assay","[4]; 60° C., 14 days, % of start",91%
same,"Solution in 0.1 M HCl, pH 1.1, assay","[4]; 60° C., 23 days, % of start",83%
same,"Solution in 0.1 M HCl, pH 1.1, assay","[4]; 60° C., Start",0.479 mg base/ml
same,"Solution in 0.1 M HCl, pH 1.1, assay","[4]; 60° C., Start, % of start",(100%)
same,"Solution in 0.1 M HCl, pH 1.1, assay","[4]; Dark RT, 8 days, % of start",100%
same,"Solution in 0.1 M HCl, pH 1.1, assay","[4]; Dark RT, 14 days, % of start",100%
same,"Solution in 0.1 M HCl, pH 1.1, assay","[4]; Dark RT, 23 days, % of start",98%
same,"Solution in 0.1 M HCl, pH 1.1, assay","[4]; Dark RT, Start",0.479 mg base/ml
same,"Solution in 0.1 M HCl, pH 1.1, assay","[4]; Dark RT, Start, % of start",(100%)
same,"Solution in 0.1 M HCl, pH 1.1, assay",[4]; [6],100%
same,"Solution in 0.1 M HCl, pH 1.1, assay",[4]; [7],98%
same,"Solution in 0.1 M HCl, pH 1.1, assay","[4]; daylight RT, Start",0.479 mg base/ml
same,"Solution in 0.1 M HCl, pH 1.1, assay","[4]; daylight RT, Start, % of start",(100%)
same,"stability in solution, comparison in words","[4]; pH 1.1, 60° C.",less stable than Form A
same,stability in solution in words,"[4]; pH 1.1, except at 60° C.",good
same,solubility in water,[5],0.034 mg/mL
